One assay has as its target T1, PilF159-302 K167R+E170D (Thermus thermophilus, UniProt Q5SLC9, E170D/K167R).
T1 sequence (Q5SLC9 159-302 K167R/E170D): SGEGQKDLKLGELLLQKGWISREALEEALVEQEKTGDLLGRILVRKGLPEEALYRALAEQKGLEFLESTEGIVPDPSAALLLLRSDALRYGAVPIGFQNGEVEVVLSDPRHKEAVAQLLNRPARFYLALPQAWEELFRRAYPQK
Briefly: ITC binding to PilF159-302 K167R-E170D. The following applies: 20 °C. The procedure: (§1) To assess the ligand-binding capabilities of the various PilF constructs, triplicates of ITC measurements were recorded for each construct. The measurements were carried out using a MicroCal ITC200 (Malvern Panalytical). All ITC experiments were conducted at 20 °C with 50 mM Tris-HCl pH 7.5, 200 mM sodium chloride, 1 mM β-mercaptoethanol as the sample buffer. All protein samples were extensively dialyzed against the sample buffer and the buffer used for dialysis was used to dilute protein and c-di-GMP samples in preparation for the ITC measurements. Each measurement was conducted using the following protocol. In total, 39.8 μl c-di-GMP were titrated to 270 μl protein in 20 separate injections in 180 s intervals with a stirring speed of 750 rpm. After an initial delay of 120 s, the first injection of 0.2 μl c-di-GMP with a duration of 0.4 s was followed by 19 injections of 2 μl with a duration of 4 s. During the measurement, the feedback mode was set to high and the reference power to 11 μcal s^−1. To optimize precision of the measurements, protein and c-di-GMP concentrations were adjusted to the binding capabilities of the respective constructs and ranged from 5 to 200 μM for protein and 50 to 2000 μM for c-di-GMP. All thermograms were processed using Origin 7.0 (OriginLab) using a one-site– or two-site–binding model dependent on the number of expected binding events.

Another assay addresses T2, PilF159-302 K167L (Thermus thermophilus, UniProt Q5SLC9, K167L).
T2 sequence (Q5SLC9 159-302 K167L): T1 sequence (Q5SLC9 159-302 K167R/E170D)
Briefly: ITC binding to PilF159-302 K167L. The following applies: 20 °C. The procedure: as §1

The next assay has as its target PilB. Further details: method as in PMID 27578558, PMID 31868878. The following applies: cited from earlier work.
A further assay has as its target T3, PilF159-302 K167R (Thermus thermophilus, UniProt Q5SLC9, K167R).
T3 sequence (Q5SLC9 159-302 K167R): T1 sequence (Q5SLC9 159-302 K167R/E170D)
Briefly: ITC binding to PilF159-302 K167R. The following applies: 20 °C. The procedure: as §1

In the next assay the target is T4, PilF159-302 L166G (Thermus thermophilus, UniProt Q5SLC9, L166G).
T4 sequence (Q5SLC9 159-302 L166G): T1 sequence (Q5SLC9 159-302 K167R/E170D)
Briefly: ITC binding to PilF159-302 L166G. The following applies: 20 °C. The procedure:
as §1

Structures are written as SMILES.

A word on the Kd: it is the concentration at which binding is half-saturated. As for `Nc1nc2c(ncn2[C@@H]2O[C@@H]3COP(=O)(O)O[C@H]4[C@@H](O)[C@H](n5cnc6c(=O)[nH]c(N)nc65)O[C@@H]4COP(=O)(O)O[C@H]3[C@H]2O)c(=O)[nH]1` [c-di-GMP, cyclic dimeric guanosine monophosphate], the N worked out at 0.76 ± 0.03 at PilF159-302 K167R+E170D, 0.76 ± 0.10 on PilF159-302 K167L, 0.79 ± 0.03 on PilF159-302 K167R and 0.92 ± 0.10 at PilF159-302 L166G. Also, the ΔH on PilF159-302 K167R+E170D was -12.843 ± 0.363 kcal/mol; at PilF159-302 K167L, -10.241 ± 0.494 kcal/mol; at PilF159-302 K167R, -10.42 ± 0.552 kcal/mol; on PilF159-302 L166G, -10.283 ± 0.189 kcal/mol. For the same compound, the ΔS at PilF159-302 K167R+E170D was -11.6 ± 1.3 cal/mol/deg; at PilF159-302 K167L, 5.4 ± 1.4 cal/mol/deg; at PilF159-302 K167R, -4.4 ± 1.9 cal/mol/deg; at PilF159-302 L166G it was 1.2 ± 3.4 cal/mol/deg. Moreover, the dissociation constant Kd at PilF159-302 K167R+E170D (pH 7.5) is 92 ± 8 nM; at PilF159-302 K167L (pH 7.5), 2 ± 0.3 nM; at PilB, 53 nM; on PilF159-302 K167R (pH 7.5), 150 ± 7 nM; at PilF159-302 L166G (pH 7.5) it was 3 nM.
